Laboratory results: PubChem BioAssay (NCI)
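48-hour exposure; five concentrations; linearly interpolated endpoints. The concentration for full growth arrest is given as TGI.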

Legend:
Experiment in all cases: inhibition of tumour cell growth, NCI panel, 48 h
[1] = system: 786-0 renal
[2] = system: A549 NSCLC
[3] = system: ACHN renal
[4] = system: CCRF-CEM leukemia
[5] = system: COLO 205 colon
[6] = system: DLD-1 colon
[7] = system: DMS 273 small cell lung
[8] = system: EKVX NSCLC
[9] = system: HCC-2998 colon
[10] = system: HCT-116 colon
[11] = system: HCT-15 colon
[12] = system: HL-60(TB) leukemia
[13] = system: HOP-62 NSCLC
[14] = system: HOP-92 NSCLC
[15] = system: HT29 colon
[16] = system: IGROV1 ovarian
[17] = system: K-562 leukemia
[18] = system: KM12 colon
[19] = system: KM20L2 colon
[20] = system: LOX IMVI melanoma
[21] = system: LXFL 529 NSCLC
[22] = system: M14 melanoma
[23] = system: M19-MEL melanoma
[24] = system: MALME-3M melanoma
[25] = system: MOLT-4 leukemia
[26] = system: NCI-H226 lung
[27] = system: NCI-H23 lung
[28] = system: NCI-H460 lung
[29] = system: NCI-H522 lung
[30] = system: OVCAR-3 ovarian
[31] = system: OVCAR-4 ovarian
[32] = system: OVCAR-8 ovarian
[33] = system: RXF 393 renal
[34] = system: SF-268 CNS
[35] = system: SF-295 CNS
[36] = system: SF-539 CNS
[37] = system: SK-MEL-2 melanoma
[38] = system: SK-MEL-28 melanoma
[39] = system: SK-MEL-5 melanoma
[40] = system: SK-OV-3 ovarian
[41] = system: SN12C renal
[42] = system: SNB-19 CNS
[43] = system: SNB-75 CNS
[44] = system: SNB-78 CNS
[45] = system: SR leukemia
[46] = system: SW-620 colon
[47] = system: TK-10 renal
[48] = system: U251 CNS
[49] = system: UACC-257 melanoma
[50] = system: UACC-62 melanoma
[51] = system: UO-31 renal
[52] = system: XF 498 CNS
[53] = system: A498 renal
[54] = system: DMS 114 small cell lung
[55] = system: RPMI-8226 leukemia
[56] = system: CAKI-1 renal
[57] = system: OVCAR-5 ovarian

Cc1nc2c(n1CC(C)C)C(=O)c1ccccc1C2=O
TGI [1]: > 100 µM
TGI [2]: 97.7 µM
TGI [3]: > 100 µM
TGI [4]: > 100 µM
TGI [5]: > 100 µM
TGI [6]: > 100 µM
TGI [7]: > 100 µM
TGI [8]: > 100 µM
TGI [9]: > 100 µM
TGI [10]: 67.4 µM
TGI [11]: > 100 µM
TGI [12]: > 100 µM
TGI [13]: > 100 µM
TGI [14]: 65.7 µM
TGI [15]: > 100 µM
TGI [16]: > 100 µM
TGI [17]: > 100 µM
TGI [18]: > 100 µM
TGI [19]: > 100 µM
TGI [20]: > 100 µM
TGI [21]: > 100 µM
TGI [22]: > 100 µM
TGI [23]: 29.6 µM
TGI [24]: 40.6 µM
TGI [25]: > 100 µM
TGI [26]: > 100 µM
TGI [27]: 49.2 µM
TGI [28]: 54.2 µM
TGI [29]: 76.5 µM
TGI [30]: 82.1 µM
TGI [31]: > 100 µM
TGI [32]: > 100 µM
TGI [33]: > 100 µM
TGI [34]: > 100 µM
TGI [35]: > 100 µM
TGI [36]: 87.6 µM
TGI [37]: 74.7 µM
TGI [38]: > 100 µM
TGI [39]: 34.7 µM
TGI [40]: > 100 µM
TGI [41]: > 100 µM
TGI [42]: > 100 µM
TGI [43]: > 100 µM
TGI [44]: > 100 µM
TGI [45]: > 100 µM
TGI [46]: > 100 µM
TGI [47]: > 100 µM
TGI [48]: > 100 µM
TGI [49]: 45.4 µM
TGI [50]: 50.5 µM
TGI [51]: > 100 µM
TGI [52]: 95.9 µM

CCOC(=O)C(C(CC(=O)OC)NC(=O)OCc1ccccc1)C1(C)OCCO1 (stereo not given)
TGI [1]: > 100 µM
TGI [53]: > 100 µM
TGI [2]: > 100 µM
TGI [3]: > 100 µM
TGI [4]: > 100 µM
TGI [5]: > 100 µM
TGI [6]: > 100 µM
TGI [54]: > 100 µM
TGI [7]: > 100 µM
TGI [8]: > 100 µM
TGI [9]: > 100 µM
TGI [10]: > 100 µM
TGI [11]: > 100 µM
TGI [12]: > 100 µM
TGI [13]: > 100 µM
TGI [15]: > 100 µM
TGI [16]: > 100 µM
TGI [17]: > 100 µM
TGI [19]: > 100 µM
TGI [20]: > 100 µM
TGI [21]: > 100 µM
TGI [22]: > 100 µM
TGI [24]: > 100 µM
TGI [25]: > 100 µM
TGI [26]: > 100 µM
TGI [27]: > 100 µM
TGI [28]: > 100 µM
TGI [30]: > 100 µM
TGI [31]: > 100 µM
TGI [32]: > 100 µM
TGI [55]: > 100 µM
TGI [33]: > 100 µM
TGI [34]: > 100 µM
TGI [35]: > 100 µM
TGI [36]: > 100 µM
TGI [37]: > 100 µM
TGI [38]: > 100 µM
TGI [39]: > 100 µM
TGI [41]: > 100 µM
TGI [42]: > 100 µM
TGI [43]: > 100 µM
TGI [45]: > 100 µM
TGI [46]: > 100 µM
TGI [47]: > 100 µM
TGI [48]: > 100 µM
TGI [49]: > 100 µM
TGI [50]: > 100 µM
TGI [51]: > 100 µM
TGI [52]: > 100 µM

C=CCc1cc(OC)c2c(c1)C(OC(C)=O)CC(c1ccc(OC)c(OC)c1)O2 (stereo not given)
TGI [2]: > 100 µM
TGI [3]: > 100 µM
TGI [56]: > 100 µM
TGI [4]: > 100 µM
TGI [5]: > 100 µM
TGI [6]: > 100 µM
TGI [54]: > 100 µM
TGI [7]: > 100 µM
TGI [8]: > 100 µM
TGI [9]: > 100 µM
TGI [10]: > 100 µM
TGI [11]: > 100 µM
TGI [12]: > 100 µM
TGI [13]: > 100 µM
TGI [14]: 76.2 µM
TGI [15]: > 100 µM
TGI [16]: > 100 µM
TGI [17]: > 100 µM
TGI [18]: > 100 µM
TGI [19]: > 100 µM
TGI [21]: > 100 µM
TGI [22]: > 100 µM
TGI [23]: > 100 µM
TGI [24]: > 100 µM
TGI [25]: > 100 µM
TGI [26]: > 100 µM
TGI [27]: > 100 µM
TGI [28]: > 100 µM
TGI [29]: > 100 µM
TGI [30]: > 100 µM
TGI [31]: > 100 µM
TGI [57]: > 100 µM
TGI [34]: > 100 µM
TGI [35]: > 100 µM
TGI [36]: > 100 µM
TGI [38]: > 100 µM
TGI [39]: > 100 µM
TGI [40]: > 100 µM
TGI [41]: > 100 µM
TGI [42]: > 100 µM
TGI [43]: 58.6 µM
TGI [44]: > 100 µM
TGI [45]: > 100 µM
TGI [46]: > 100 µM
TGI [47]: > 100 µM
TGI [48]: > 100 µM
TGI [49]: > 100 µM
TGI [50]: > 100 µM
TGI [51]: > 100 µM
